The record followed here is the supplement of paper PMC11208160.

This data set can be described thus: recombinant UMI read abundance after kanamycin selection (control-corrected) (log10(CPM+1)); higher = more efficient recombination; extreme values may be limits of the assay; sequences stand for … in AGTGCAGAGAAAATCGGCCAGTTTTCTCTGCCTGCAGTCCGCATGCCGTGGGACCCCTTGGGTTCTAACCTGTTGCCTAGATTTATGCAGCGGACTGCCTTTCTCCCAAAGTGATAAACCGG…AGGTTGGTTTCACT; site = the 11-nt donor. Summed up: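 Sequencing read counts were converted to CPM, averaged over two replicates and scaled by control-derived factors. Results are given as log10(CPM+1). The reads covered the donor–target junction of recombinant UMIs from a pooled Escherichia coli screen of donor and donor-binding-loop pairs for the IS621 bridge recombinase.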
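Note: IS621 bridge recombinase in Escherichia coli cells against a fixed T5 target plasmid.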

Turning to “GGATAGACATGGACCGGTTTTCCCGGTAATCCGTATTTGCA (site GGATAGACTCG)”, the “recombinant UMI read abundance (log10)” value came out at 0.831.

“GGATAGACATGGACCGGTTTTCCCGGTAATCCGTATTTGCA (site GGATAGACTGG)”: the “recombinant UMI read abundance (log10)” value is 0.112.

Turning to “GGATAGACATGGACCGGTTTTCCCGGTAATCCGTATTTGCA (site GGATAGACTTG)”, the “recombinant UMI read abundance (log10)” value was 2.79.

Regarding “GGATAGACATGGACCGGTTTTCCCGGTAATCCGTATTTGCG (site GGATAGACTAG)”, the “recombinant UMI read abundance (log10)” value worked out at 2.19.

In the case of “GGATAGACATGGACCGGTTTTCCCGGTAATCCGTATTTGCG (site GGATAGACTCG)”, the “recombinant UMI read abundance (log10)” value stood at 2.55.

As to “GGATAGACATGGACCGGTTTTCCCGGTAATCCGTATTTGCG (site GGATAGACTGG)”, the “recombinant UMI read abundance (log10)” value turned out to be 1.52.

Consider “GGATAGACATGGACCGGTTTTCCCGGTAATCCGTATTTGCG (site GGATAGACTTG)”, for which the “recombinant UMI read abundance (log10)” value amounted to 2.13.

With “GGCAAGACATGGACCGGTTTTCCCGGTAATCCGTATTTGCA (site AGGAAGACTTG)”, the “recombinant UMI read abundance (log10)” value came to 0.

With “GGCAAGACATGGACCGGTTTTCCCGGTAATCCGTATTTGCA (site GGCAAGACTTG)”, the “recombinant UMI read abundance (log10)” value is 2.62.

On to “GGCAATCCATGGACCGGTTTTCCCGGTAATCCGTATTTGAG (site GGCAATCCTAT)”, for which the “recombinant UMI read abundance (log10)” value was 0.

As to “GGCAATCCATGGACCGGTTTTCCCGGTAATCCGTATTTGAG (site GGCAATCCTCT)”, the “recombinant UMI read abundance (log10)” value was 0.41.

With “GGCAATCCATGGACCGGTTTTCCCGGTAATCCGTATTTGAG (site GGCAATCCTGT)”, the “recombinant UMI read abundance (log10)” value amounted to 0.

Regarding “GGCAATCCATGGACCGGTTTTCCCGGTAATCCGTATTTGAG (site GGCAATCCTTT)”, the “recombinant UMI read abundance (log10)” value amounted to 0.0105.

Regarding “GGCAATCCATGGACCGGTTTTCCCGGTAATCCGTATTTGGA (site GGCAATCCTTA)”, the “recombinant UMI read abundance (log10)” value is 0.

Consider “GGCAATCCATGGACCGGTTTTCCCGGTAATCCGTATTTGGA (site GGCAATCCTTC)”, for which the “recombinant UMI read abundance (log10)” value is 0.

Regarding “GGCAATCCATGGACCGGTTTTCCCGGTAATCCGTATTTGGA (site GGCAATCCTTG)”, the “recombinant UMI read abundance (log10)” value was determined as 0.

As to “GGCAATCCATGGACCGGTTTTCCCGGTAATCCGTATTTGGA (site GGCAATCCTTT)”, the “recombinant UMI read abundance (log10)” value amounted to 0.00891.

As to “GGCACGACATGGACCGGTTTTCCCGGTAATCCGTATTTGCG (site GGCACGACTCG)”, the “recombinant UMI read abundance (log10)” value was found to be 0.903.

Regarding “GGCACGCCATGGACCGGTTTTCCCGGTAATCCGTATTTGTA (site GACACGCCTTA)”, the “recombinant UMI read abundance (log10)” value is 0.00602.

“GGCACGCCATGGACCGGTTTTCCCGGTAATCCGTATTTGTA (site GCCACGCCTTA)”: the “recombinant UMI read abundance (log10)” value amounted to 0.006.

Consider “GGCACGCCATGGACCGGTTTTCCCGGTAATCCGTATTTGTA (site GGCACGCCTTA)”, for which the “recombinant UMI read abundance (log10)” value is 0.523.

Turning to “GGCACGCCATGGACCGGTTTTCCCGGTAATCCGTATTTGTA (site GTCACGCCTTA)”, the “recombinant UMI read abundance (log10)” value is 0.00471.

In the case of “GGCACGTCATGGACCGGTTTTCCCGGTAATCCGTATTTGTT (site GGAACGTCTAA)”, the “recombinant UMI read abundance (log10)” value came out at 0.027.

Take “GGCACGTCATGGACCGGTTTTCCCGGTAATCCGTATTTGTT (site GGCACGTCTAA)”: the “recombinant UMI read abundance (log10)” value came to 0.595.

With “GGCACGTCATGGACCGGTTTTCCCGGTAATCCGTATTTGTT (site GGGACGTCTAA)”, the “recombinant UMI read abundance (log10)” value is 0.00471.

On to “GGCACGTCATGGACCGGTTTTCCCGGTAATCCGTATTTGTT (site GGTACGTCTAA)”, for which the “recombinant UMI read abundance (log10)” value is 0.0192.

For “GGCAGAGCATGGACCGGTTTTCCCGGTAATCCGTATTTGAG (site GGCAGAGCTCT)”, the “recombinant UMI read abundance (log10)” value worked out at 1.67.

As for “GGCCAAACATGGACCGGTTTTCCCGGTAATCCGTATTTGAC (site GGCCAAACTGT)”, the “recombinant UMI read abundance (log10)” value stood at 1.73.

As for “GGCCACCCATGGACCGGTTTTCCCGGTAATCCGTATTTGTA (site GGCCACCCTAA)”, the “recombinant UMI read abundance (log10)” value was found to be 0.0187.
